Tested on: Pseudomonas aeruginosa
Experiment: Test for determining the reduction of Pseudomonas aeruginosa according to EN 1276
Assay type: cell-based
Details: for reduction of Pseudomonas aeruginosa (antibacterial effect): EN 1276
Method: The washing agent was used in a test for determining the reduction of Pseudomonas aeruginosa according to EN 1276. The obtained value served as a reference. 0.10 wt. % GLDA or 0.50 wt. % were then added to the washing agent and likewise used in the test for determining the reduction of Pseudomonas aeruginosa according to EN 1276. The all-purpose cleaner was used in a test for determining the reduction of Pseudomonas aeruginosa according to EN 1276. The obtained value served as a reference. 0.10 wt. % GLDA or 0.50 wt. % were then added to the all-purpose cleaner and likewise used in the test for determining the reduction of Pseudomonas aeruginosa according to EN 1276.

## O=C(O)CC[C@@H](C(=O)O)N(CC(=O)O)CC(=O)O [Glutamic acid diacetic acid (GLDA), glutamic acid-N,N-diacetic acid]
Table 1, Example 1, concentration glutamic acid diacetic acid 0.10% (according to the invention)
  reduction of Pseudomonas aeruginosa (antibacterial effect): 7.65E+00
Table 1, Example 1, concentration glutamic acid diacetic acid 0.50% (according to the invention)
  reduction of Pseudomonas aeruginosa (antibacterial effect): 6.90E+01
Table 2, Example 2, concentration glutamic acid diacetic acid 0.10% (according to the invention)
  reduction of Pseudomonas aeruginosa (antibacterial effect): 7.65E+00
Table 2, Example 2, concentration glutamic acid diacetic acid 0.50% (according to the invention)
  reduction of Pseudomonas aeruginosa (antibacterial effect): 6.90E+01
Substance on its own (GLDA itself; agent exclusively comprising QAC)
  antimicrobial / antibacterial effect (in words): does not have an antimicrobial effect
